According to PubChem BioAssay (NCI):
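Cultured in 96-well plates, cells were exposed to test compound for 48 hours across five concentrations. GI50: concentration for 50% inhibition of growth. The concentration for full growth arrest is given as TGI.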

Key:
Experiment in all cases: NCI tumour cell line growth inhibition, 48 h
LOX IMVI melanoma = test system: LOX IMVI melanoma
U251 CNS = test system: U251 CNS
SK-MEL-28 melanoma = test system: SK-MEL-28 melanoma
UACC-257 melanoma = test system: UACC-257 melanoma
NCI-H23 lung = test system: NCI-H23 lung
TK-10 renal = test system: TK-10 renal
SF-539 CNS = test system: SF-539 CNS
SK-OV-3 ovarian = test system: SK-OV-3 ovarian
OVCAR-3 ovarian = test system: OVCAR-3 ovarian
NCI-H226 lung = test system: NCI-H226 lung

Row | SMILES | GI50 (LOX IMVI melanoma) [µM] | TGI (LOX IMVI melanoma) [µM] | GI50 (U251 CNS) [µM] | TGI (U251 CNS) [µM] | GI50 (SK-MEL-28 melanoma) [µM] | TGI (SK-MEL-28 melanoma) [µM] | GI50 (UACC-257 melanoma) [µM] | TGI (UACC-257 melanoma) [µM] | GI50 (NCI-H23 lung) [µM] | TGI (NCI-H23 lung) [µM] | GI50 (TK-10 renal) [µM] | TGI (TK-10 renal) [µM] | GI50 (SF-539 CNS) [µM] | TGI (SF-539 CNS) [µM] | GI50 (SK-OV-3 ovarian) [µM] | TGI (SK-OV-3 ovarian) [µM] | GI50 (OVCAR-3 ovarian) [µM] | TGI (OVCAR-3 ovarian) [µM] | GI50 (NCI-H226 lung) [µM] | TGI (NCI-H226 lung) [µM]
1 | c1ccc(CNc2nc(Nc3ccc(-c4nc5ccccc5[nH]4)cc3)c3cn[nH]c3n2)cc1 | 1.69 | 3.36 | 2.27 | 5.85 | 2.15 | 6.68 | 1.61 | 3.4 | 2.28 | 6.13 | 2.93 | 8.35 | 2 | 5.19 | 3.97 | 17.8 | 1.61 | 3.3 | 2.98 | 8.43
2 | C=C1CCC2C3(C)COC(c4cccc(Cl)c4)OC3CCC2(C)C1/C=C/C1=CCOC1=O (stereo not given) | 2.72 | > 100 | 7.08 | > 100 | > 100 | > 100 | 3.43 | > 100 | 5.17 | > 100 | > 100 | > 100 | 48.5 | > 100 | > 100 | > 100 | 7.95 | > 100 | 6.92 | > 100
3 | CC1(C)CCC(CN2CCN(c3ccc(C(=O)NS(=O)(=O)c4ccc(NCC5CCOCC5)c([N+](=O)[O-])c4)c(Oc4cnc5[nH]ccc5c4)c3)CC2)=C(c2ccc(Cl)cc2)C1 | 2.21 | 4.85 | 2.9 | 11.5 | 1.41 | 6.79 | 1.98 | 4.94 | 3.13 | 12.5 | 2.26 | 6.34 | 2.41 | 5.62 | 3.16 | 10.9 | 2.31 | 5.44 | 2.36 | 6.9
4 | CCN(CC)c1ccc(/C=C/C2=[N+](C)c3ccccc3C2(C)C)cc1 | 0.251 | 23 | 0.201 | 21.6 | 0.61 | 9.48 | 0.375 | 14.6 | 0.181 | 25.8 | 0.373 | 10.6 | 0.776 | 13.9 | 0.275 | 2.79 | 0.281 | 13.2 | 0.992 | 18.7
5 | CCOC(=O)/C(=C/c1c(-c2ccccc2)[nH]c2ccccc12)C(=O)c1ccc(Cl)cc1 | 3.64 | > 100 | 3.85 | > 100 | 5.26 | > 100 | 6.49 | > 100 | 3.47 | > 100 | 28.2 | > 100 | 4.23 | > 100 | 4.38 | > 100 | 3.35 | > 100 | 5.6 | > 100
6 | COc1ccc(C(NCCNC(c2ccc(OC)c(OC)c2)c2cc3c(cc2O)OCO3)c2cc3c(cc2O)OCO3)cc1OC (stereo not given) | – | 3.51 | – | 7.03 | – | 3.55 | – | 9.97 | – | 9.3 | – | 12.7 | – | 6.09 | – | 18.8 | – | 6.82 | – | 39.1
7 | COc1ccc(Nc2nc3c(N)cc(C(F)(F)F)cc3nc2-c2ccccc2)cc1 | – | > 100 | – | > 100 | – | > 100 | – | > 100 | – | > 100 | – | > 100 | – | > 100 | – | > 100 | – | > 100 | – | > 100
8 | CC1(C)OCC(C2OC(On3nnc4ccc(Cl)cc43)C3OC(C)(C)OC23)O1 (stereo not given) | – | > 100 | – | > 100 | – | > 100 | – | > 100 | – | > 100 | – | > 100 | – | > 100 | – | > 100 | – | > 100 | – | > 100
9 | COC12c3ccccc3-c3ccccc3C1[C@@H](C(=O)O)[C@H]2C(=O)O (stereo not given in full) | – | > 10 | – | > 10 | – | > 10 | – | > 10 | – | > 10 | – | > 10 | – | > 10 | – | > 10 | – | > 10 | – | > 10
10 | Nc1nccc(C#Cc2cncnc2Nc2ccc(OCc3cccc(F)c3)c(Cl)c2)n1 | 1.72 | 6.01 | 3.82 | 7.42 | 4.57 | 8.29 | 3.92 | 7.64 | 4.22 | 8.92 | 4.5 | 8.22 | 5.58 | 14.1 | 7.22 | > 22.5 | 3.83 | 7.18 | 4.14 | 7.83
11 | COc1cc2c(cc1OCCCN1CCN(CCCOc3cc4c(cc3OC)C(=O)C3CCC[C@H]3C=N4)CC1)N=C[C@@H]1CCCC1C2=O (stereo not given in full) | 3.65 | > 60.7 | 4.91 | > 100 | 32.9 | > 100 | 13 | > 46.4 | 5.42 | 14.1 | 7.9 | > 100 | 0.614 | 16.4 | 63.5 | > 100 | 8.17 | 60.6 | 13.2 | > 100
